pEC50, pIC50, pKi: −log10 of the molar value. Calls of active or inactive are those of the source. The calls are words filed in the database; no cut-off is given here.
Assays:
[1] = test system: Saccharomyces cerevisiae; experiment: Inhibition of yeast glutathione reductase assessed as reduction of glutathione disulfide up to 250 uM by spectrophotometrically
[2] = test system: Trypanosoma brucei brucei; experiment: Trypanocidal activity against drug-sensitive Trypanosoma brucei brucei Lab 110 EATRO assessed as inhibition of trypanosomes after 48 hrs; format: functional, organism-based
[3] = test system: Trypanosoma brucei rhodesiense; experiment: Trypanocidal activity against clinical isolate Trypanosoma brucei rhodesiense KETRI 243 assessed as inhibition of trypanosomes after 48 hrs; format: functional, organism-based; settings: KETRI 243, 48 h
[4] = biological target: Trypanothione reductase (Trypanosoma cruzi, UniProt P28593); experiment: Inhibition of Trypanosoma cruzi trypanothione reductase assessed as reduction of trypanothione disulfide by spectrophotometrically
[5] = test system: Trypanosoma brucei rhodesiense; experiment: Trypanocidal activity against clinical isolate Trypanosoma brucei rhodesiense KETRI 269 assessed as inhibition of trypanosomes after 48 hrs; format: functional, organism-based; settings: KETRI 269, 48 h
[6] = test system: Trypanosoma brucei brucei; experiment: In vivo trypanocidal activity against drug-sensitive Trypanosoma brucei brucei Lab 110 EATRO infected in female Swiss-Webster mouse assessed as life prolongation at 50 mg/kg, ip administered in 2 daily doses for 3 days relative to control; format: functional, organism-based; parameters: dose 50 mg/kg
[7] = test system: Trypanosoma brucei rhodesiense; experiment: Trypanocidal activity against pentamidine and melarsoprol-resistant Trypanosoma brucei rhodesiense K 243-As-10-3 assessed as inhibition of trypanosomes after 48 hrs; format: functional, organism-based; settings: K 243-As-10-3, 48 h
[8] = test system: Mus musculus; experiment: Toxicity in drug-sensitive Trypanosoma brucei brucei Lab 110 EATRO infected in female Swiss-Webster mouse assessed as death at 50 mg/kg, ip once daily for 3 days relative to control; format: organism-based; parameters: dose 50 mg/kg, route intraperitoneal; settings: in vivo, 72 h
[9] = test system: Mus musculus; experiment: Toxicity in drug-sensitive Trypanosoma brucei brucei Lab 110 EATRO infected in female Swiss-Webster mouse assessed as death at 1 to 25 mg/kg, ip once daily for 3 days relative to control; format: organism-based; parameters: dose 1-25 mg/kg, route intraperitoneal; settings: in vivo, 72 h
[10] = test system: Trypanosoma brucei brucei; experiment: In vivo trypanocidal activity against drug-sensitive Trypanosoma brucei brucei Lab 110 EATRO infected in female Swiss-Webster mouse assessed as life prolongation at 1 to 25 mg/kg, ip once daily for 3 days relative to control; format: functional, organism-based
[11] = test system: Trypanosoma brucei; experiment: Trypanocidal activity against bloodstream form of Trypanosoma brucei assessed as inhibition of trypanosomes after 48 hrs; format: functional, organism-based

Chain of Trypanothione reductase (P28593 whole entry): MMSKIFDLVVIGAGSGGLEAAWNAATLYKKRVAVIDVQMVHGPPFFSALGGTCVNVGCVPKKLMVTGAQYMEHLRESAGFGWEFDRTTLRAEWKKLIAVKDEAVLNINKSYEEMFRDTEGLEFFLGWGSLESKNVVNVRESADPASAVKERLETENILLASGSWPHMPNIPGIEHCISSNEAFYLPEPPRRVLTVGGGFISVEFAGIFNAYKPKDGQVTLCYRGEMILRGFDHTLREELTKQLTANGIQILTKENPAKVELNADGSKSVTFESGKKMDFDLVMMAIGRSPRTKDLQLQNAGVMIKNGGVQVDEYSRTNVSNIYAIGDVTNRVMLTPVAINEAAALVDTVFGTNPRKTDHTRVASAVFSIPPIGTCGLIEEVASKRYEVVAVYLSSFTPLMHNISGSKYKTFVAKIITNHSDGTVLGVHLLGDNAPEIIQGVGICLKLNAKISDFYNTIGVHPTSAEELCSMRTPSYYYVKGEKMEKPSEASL

Row | SMILES | inhibition [1] | pIC50 [2] | pIC50 [3] | pKi [4] | pIC50 [5] | Activity [6] | pIC50 [7] | Activity [8] | Activity [9] | Activity [10] | pEC50 [11]
1 | CN(C)CCNC1c2ccccc2CCc2ccccc21 | inactive | 5.77 | 5.70 | 3.87 | – | – | – | – | – | – | –
2 | NCCCN(CCCCN(CCCN)C1c2ccccc2CCc2ccccc21)C1c2ccccc2CCc2ccccc21 | inactive | 5.59 | 5.82 | 6.59 | 5.77 | Active | 4.66 | Toxic | – | – | –
3 | NCCCN(CCCN)C1c2ccccc2CCc2ccccc21 | inactive | – | – | 5.12 | – | – | – | – | – | – | –
4 | NCCCCN(CCCN)C1c2ccccc2CCc2ccccc21 | inactive | 6.21 | 5.35 | 5.40 | 5.37 | – | 5.08 | – | Toxic | inactive | –
5 | CN(C)CCCN1c2ccccc2CCc2ccc(Cl)cc21 [CLOMIPRAMINE] | inactive | – | – | – | – | – | – | – | – | – | 5.30
6 | CN(C)CCCNC1c2ccccc2CCc2ccccc21 | inactive | 5.86 | – | 4.09 | – | – | – | – | – | – | –
7 | NCCN(CCN)C1c2ccccc2CCc2ccccc21 | inactive | 5.55 | – | 4.55 | – | – | – | – | – | – | –

From ChEMBL document CHEMBL3396948 (Bioorg Med Chem, 2015)
